Measured values published in patent US20240309418A1, “ENZYMATIC METHODS AND COMPOSITIONS FOR POLYMERIZATION OF PHOSPHORAMIDATE AND THIOPHOSPHORAMIDATE-LINKED DNA” (The General Hospital Corporation, priority 2023, published 2024).
Where “and” joins values, the source holds several entries; their conditions need not be identical. Equal values may be shown once. Read-outs that look alike come from different tables or passages of the source.

Tests used:
wild-type BF = wild-type BF (Geobacillus stearothermophilus, UniProt P52026); assay type: biochemical, Bacillus stearothermophilus; conditions: for Kinetics of 3′-amino primer extension vs. absence of added divalent metals: 5 mM metal ion, 55° C., pH 8.8; for kpol of 3′-amino primer extension by wild-type BF: varying metal chloride concentration; for Kd: in the presence of 1 mM dCTP, read-out: Kd,app (apparent dissociation constant of metal ion)
wild-type BF, sequence (P52026 other isoform, or with tags, fused parts or gaps with the stated changes): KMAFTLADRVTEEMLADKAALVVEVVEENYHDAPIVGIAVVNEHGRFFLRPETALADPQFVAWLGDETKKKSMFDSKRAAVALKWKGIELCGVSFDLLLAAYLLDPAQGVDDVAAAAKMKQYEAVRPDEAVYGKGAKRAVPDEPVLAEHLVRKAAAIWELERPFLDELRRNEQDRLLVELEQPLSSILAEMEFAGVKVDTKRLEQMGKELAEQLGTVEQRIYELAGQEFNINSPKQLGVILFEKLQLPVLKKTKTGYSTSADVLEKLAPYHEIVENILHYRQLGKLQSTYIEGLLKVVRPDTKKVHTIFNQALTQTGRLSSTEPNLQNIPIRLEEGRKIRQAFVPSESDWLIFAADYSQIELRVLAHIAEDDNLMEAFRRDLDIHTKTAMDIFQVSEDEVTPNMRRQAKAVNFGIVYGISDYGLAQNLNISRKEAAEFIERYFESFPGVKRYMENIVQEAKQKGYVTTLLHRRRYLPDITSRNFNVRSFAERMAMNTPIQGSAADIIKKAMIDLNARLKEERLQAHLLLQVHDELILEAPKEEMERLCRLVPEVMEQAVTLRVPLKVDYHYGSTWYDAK
Protocol: Primer extension assays. Except where indicated, all extension reactions were performed with 1 μM fluorescein-labeled primer, 1.5 μM template, and ˜1.1 μM purified His6-tagged protein at 55° C. in a reaction buffer composed of 40 mM Tris-HCl, pH 8.8, 1 mM DTT, and a divalent cation as specified, typically 10 mM CaCl2. Reaction mixtures were equilibrated at the indicated reaction temperature for 1 min and initiated by addition of substrate. Progress was monitored by sampling 1 μL from the reaction manually quenched into 24 μL of chilled 90% formamide, 10 mM EDTA. Quenched samples were denatured at 90° C. for 1 min and cooled to room temperature prior to separation by denaturing polyacrylamide gel electrophoresis on 20% TBE-urea gels. To maintain strand separation for long extension products, as in FIGS. 3F-3H, an unlabeled DNA oligonucleotide complementary to the template was added to the quenching buffer (˜2 μM) prior to denaturation. Typically, 3 or 4 μL of quenched sample was loaded per lane for gels of 0.75-mm thickness. Bands were visualized with a Typhoon laser scanning imager (GE Amersham) and quantified with the manufacturer's software. For acid digestion of extended products, a reaction sample was diluted with 2.5 volumes of 1% acetic acid, 10 mM EDTA in formamide and digested at 75° C. for 45 min prior to gel separation.

BF F710Y [1] = target: T1, BF F710Y (Geobacillus stearothermophilus, UniProt P52026, F710Y); experiment: Solvent deuterium kinetic isotope effect (SDKIE) of 3′-amino primer extension; assay type: biochemical; conditions: 1 mM dCTP, 10 mM CaCl2, varying mole fraction D2O
T1 sequence (P52026 other isoform, or with tags, fused parts or gaps with the stated changes): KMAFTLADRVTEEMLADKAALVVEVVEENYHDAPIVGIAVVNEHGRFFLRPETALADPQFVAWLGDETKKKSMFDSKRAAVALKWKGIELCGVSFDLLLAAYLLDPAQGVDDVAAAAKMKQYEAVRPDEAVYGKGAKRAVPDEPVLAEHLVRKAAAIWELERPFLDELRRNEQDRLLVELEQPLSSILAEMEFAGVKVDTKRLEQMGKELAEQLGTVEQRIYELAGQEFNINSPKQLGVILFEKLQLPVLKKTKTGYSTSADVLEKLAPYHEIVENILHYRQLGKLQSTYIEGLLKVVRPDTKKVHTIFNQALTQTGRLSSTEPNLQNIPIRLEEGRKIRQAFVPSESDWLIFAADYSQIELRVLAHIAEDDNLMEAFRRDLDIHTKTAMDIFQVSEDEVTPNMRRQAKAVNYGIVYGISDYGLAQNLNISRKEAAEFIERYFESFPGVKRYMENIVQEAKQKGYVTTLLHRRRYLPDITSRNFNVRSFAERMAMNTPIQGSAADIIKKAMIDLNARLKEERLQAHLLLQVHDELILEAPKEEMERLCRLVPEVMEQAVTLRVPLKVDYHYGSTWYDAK

BF F710Y/D598A [2] = target: T2, BF F710Y/D598A (Geobacillus stearothermophilus, UniProt P52026, A338V/A406G/A407V/A456E/A482S/A505K/A513T/A699P/A741E/D309E/D325E/D540E/D696E/D751E/E459R/E695D/F710Y/G324E/G408D/G483S/G600K/G678D/H329D/H417K/H567Y/H573N/H596R/H691Q/I672M/I841M/K356Q/L337V/L358V/L461F/M462L/M605I/N487E/P645S/P870S/Q512G/Q748R/R341H/R388C/R516Q/R816K/R823H/S306R/S424P/S812N/T369S/T436A/T442V/T475V/T491A/T508A/T536V/T728S/T790M/V391S/V413A/V537I/V598A/V619T/V813A); assay type: biochemical; design: burst activity kpol: unit not given here; conditions: for pre-steady-state rate constant for nCTP addition: 3′-amino terminal primer; for Acceleration of kinetics over Ca2+: nCTP addition
T2 sequence (P52026 other isoform, or with tags, fused parts or gaps with the stated changes): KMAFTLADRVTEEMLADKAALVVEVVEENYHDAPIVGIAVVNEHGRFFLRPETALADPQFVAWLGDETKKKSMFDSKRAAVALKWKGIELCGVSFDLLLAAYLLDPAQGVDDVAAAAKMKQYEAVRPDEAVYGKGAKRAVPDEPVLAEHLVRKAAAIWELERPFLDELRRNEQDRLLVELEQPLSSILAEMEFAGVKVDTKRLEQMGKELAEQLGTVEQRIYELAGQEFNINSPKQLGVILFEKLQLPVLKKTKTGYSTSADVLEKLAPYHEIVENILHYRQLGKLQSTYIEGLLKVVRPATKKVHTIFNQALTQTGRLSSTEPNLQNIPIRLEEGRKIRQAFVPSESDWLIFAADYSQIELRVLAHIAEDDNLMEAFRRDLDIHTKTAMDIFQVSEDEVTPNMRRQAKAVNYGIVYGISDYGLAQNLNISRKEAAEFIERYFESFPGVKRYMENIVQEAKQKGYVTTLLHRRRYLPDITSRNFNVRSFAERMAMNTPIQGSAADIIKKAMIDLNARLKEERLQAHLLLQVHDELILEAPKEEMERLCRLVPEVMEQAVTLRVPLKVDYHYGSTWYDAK

BF = BF (Geobacillus stearothermophilus, UniProt P52026, F710Y); experiment: Extension of a native DNA 3′-OH primer with nCTP and trivalent cofactors; assay type: biochemical; conditions: for pre-steady-state rate constant for extension of a native DNA 3′-OH terminus with nCTP: 5 mM metal, stoichiometric citrate, 55° C., mean±s.d.
BF F710Y/D598A [3] = target: T2, BF F710Y/D598A; assay type: biochemical; conditions: for Effect on NP-DNA polymerization with all four nNTPs on mixed sequence templates: vs. Ca2+
BF F710Y [4] = target: T1, BF F710Y; experiment: Elemental thio effect on pre-steady-state NP synthesis; assay type: biochemical; conditions: 45° C.

[Ba+2] [Ba^2+]
Kinetics of 3′-amino primer extension vs. absence of added divalent metals (wild-type BF): faster

[Ca+2] [Ca^2+]
Maximum reaction velocity, saturating Ca2+ vs. Mg2+ (wild-type BF; 1 mM dCTP): ~5 fold | kpol of 3′-amino primer extension by wild-type BF (wild-type BF; 1 mM dCTP): 0.075 min⁻¹ | Kinetics of 3′-amino primer extension vs. absence of added divalent metals (wild-type BF): faster | Kd (wild-type BF): 2100 µM | Kinetic effect among divalent cofactors (wild-type BF; pH 8.8 and 55° C.): largest kinetic effect | Maximum reaction velocity (wild-type BF; saturating metal ion): ~4.5 nt/hr | SDKIE (BF F710Y [1]): 1.16 | pre-steady-state rate constant for nCTP addition (BF F710Y/D598A [2]; 55° C.): 0.069 min⁻¹

[Lu+3] [Lu^3+]
burst activity kpol (BF F710Y/D598A [2]; 55° C., nCTP, mean±s.e.m): 6.9±0.7 | Effect on single-nucleotide 3′-amino primer extension (BF F710Y/D598A [2]; vs. Ca2+): significantly improved | pre-steady-state rate constant for extension of a native DNA 3′-OH terminus with nCTP (BF): 8±1×10^−3 min^−1 | Multiple turnover activity in long primer extensions relative to Sc3+ (BF F710Y/D598A [3]; 55° C.): far weaker multiple turnover activity | Effect on NP-DNA polymerization with all four nNTPs on mixed sequence templates (BF F710Y/D598A [3]): significantly improved

[Mg+2] [Mg^2+]
kpol of 3′-amino primer extension by wild-type BF (wild-type BF; 1 mM dCTP): 0.015 min⁻¹ | Kinetics of 3′-amino primer extension vs. absence of added divalent metals (wild-type BF): faster | Kd (wild-type BF): 1300 µM | Effect of added Mg2+ on NP-DNA synthesis activated by Sc3+ (BF F710Y/D598A [3]; low millimolar range): inhibited

Nc1ccn([C@H]2C[C@H](O)[C@@H](COP(O)(=S)OP(=O)(O)OP(=O)(O)O)O2)c(=O)n1 (stereo partly drawn) [Rp-dCTPαS, 2′-deoxycytidine 5′-O-(1-thiotriphosphate), reference compound]
Additional thio effect for Rp vs. Sp substrate (BF F710Y [4]; Ca2+ activated): 4 fold

[Sc+3] [Sc^3+]
Specificity for the Sp over Rp substrates (BF F710Y [4]; Sc3+ activated): 66 fold | thio effect (BF F710Y [4]; Sc3+ activated, mean±s.d.): 0.58±0.07 | pre-steady-state rate constant for nCTP addition (BF F710Y/D598A [2]; 55° C.): 7.1 ± 0.5 min⁻¹ and 6.8 ± 0.3 min⁻¹ | Acceleration of kinetics over Ca2+ (BF F710Y/D598A [2]; 55° C.): ~100 fold | Acceleration of kinetics over Ca2+ (BF F710Y/D598A [2]; 55° C., listed as Scandium(III)): > 100 fold | Effect on single-nucleotide 3′-amino primer extension (BF F710Y/D598A [2]; vs. Ca2+): significantly improved | Stabilization effect (BF F710Y/D598A [2]; vs. Ca2+): ca. −3 kcal/mol | pre-steady-state rate constant for extension of a native DNA 3′-OH terminus with nCTP (BF): 5.5±0.6×10^−3 min^−1 | 3′-OH extension compared with 3′-NH2 extension (BF; nCTP): at least three orders of magnitude slower | Length of NP-DNA strands yielded (BF F710Y/D598A [3]): ≥ 100 nts | Overall NP polymerase reaction time to yield full length products (BF F710Y/D598A [3]; Sc3+ and spermine, 55° C.): 0.9-1.3 min/nt | Effect on NP-DNA polymerization with all four nNTPs on mixed sequence templates (BF F710Y/D598A [3]): significantly improved | Full length products on mixed sequence DNA templates (BF F710Y/D598A [3]; with spermine, 55° C.): up to +71 nt | Time to synthesize full length products (BF F710Y/D598A [3]; with spermine, 55° C., +71 or +100 nt templates): 1 to 2 h | Full length products on mixed sequence DNA templates, with additional enzyme (BF F710Y/D598A [3]; with spermine, additional enzyme, 55° C.): up to +100 nt

Nc1ccn([C@H]2C[C@H](O)[C@@H](COP(O)(=S)OP(=O)(O)OP(=O)(O)O)O2)c(=O)n1 (stereo partly drawn) [Sp-dCTPαS, 2′-deoxycytidine 5′-O-(1-thiotriphosphate), reference compound]
thio effect kO/kS (BF F710Y [4]; Ca2+ activated, dCTP vs. Sp-dCTPαS, mean±s.d.): 10.6±0.5

[Sr+2] [Sr^2+]
Kinetics of 3′-amino primer extension vs. absence of added divalent metals (wild-type BF): faster

[Y+3] [Y^3+]
Effect on single-nucleotide 3′-amino primer extension (BF F710Y/D598A [2]; vs. Ca2+): significantly improved | Effect on NP-DNA polymerization with all four nNTPs on mixed sequence templates (BF F710Y/D598A [3]): significantly improved

NCCCNCCCCNCCCN [spermine]
Activation of long NP-DNA synthesis by polyamine (BF F710Y/D598A [3]): optimal at low micromolar concentrations
